These results are taken from PubChem BioAssay AID1963866 (Molecular Pharmacology Branch, DTP, NCI, 2024).

The assay has as its system PDC KRAS tumor spheroids with HUVEC/MSC, viability. Briefly: Anticancer human tumor 349418-098-R-PDC patient-derived lung adenocarcinoma cell line growth inhibition [KRAS2]. To be noted: for viability, T/C: stronger effect = lower value. The essentials:
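Combination screen of spheroid viability in tumor-cell co-cultures with endothelial (HUVEC) and mesenchymal stem cell stroma. Each agent was tested in half-log dilutions, topping at clinical Cmax or at 10 microM without a known Cmax.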

Setting [1] is: curve of first compound, second compound 0.1 µM.
The mark [2] stands for this setting: curve of first compound, second compound 0.316 µM.
[3] abbreviates: curve of first compound, second compound 1 µM.
The mark [4] stands for this setting: curve of first compound, second compound 3.16 µM.
Setting [5] is: second compound 0.1 µM, first compound 0.000316 µM.
Where [6] appears, read: second compound 0.1 µM, first compound 0.001 µM.
Where [7] appears, read: second compound 0.1 µM, first compound 0.00316 µM.
Where [8] appears, read: second compound 0.1 µM, first compound 0.01 µM.
Setting [9] is: second compound 0.1 µM, first compound 0.0316 µM.
[10] abbreviates: second compound 0.1 µM, first compound 0.1 µM.
The mark [11] stands for this setting: second compound 0.316 µM, first compound 0.000316 µM.
Setting [12] is: second compound 0.316 µM, first compound 0.001 µM.
[13] abbreviates: second compound 0.316 µM, first compound 0.00316 µM.
The mark [14] stands for this setting: second compound 0.316 µM, first compound 0.01 µM.
Where [15] appears, read: second compound 0.316 µM, first compound 0.0316 µM.
[16] abbreviates: second compound 0.316 µM, first compound 0.1 µM.
Setting [17] is: second compound 1 µM, first compound 0.000316 µM.
[18] abbreviates: second compound 1 µM, first compound 0.001 µM.
Where [19] appears, read: second compound 1 µM, first compound 0.00316 µM.
The mark [20] stands for this setting: second compound 1 µM, first compound 0.01 µM.
Where [21] appears, read: second compound 1 µM, first compound 0.0316 µM.
[22] abbreviates: second compound 1 µM, first compound 0.1 µM.
[23] abbreviates: second compound 3.16 µM, first compound 0.000316 µM.
Where [24] appears, read: second compound 3.16 µM, first compound 0.001 µM.
Setting [25] is: second compound 3.16 µM, first compound 0.00316 µM.
Where [26] appears, read: second compound 3.16 µM, first compound 0.01 µM.
The mark [27] stands for this setting: second compound 3.16 µM, first compound 0.0316 µM.
[28] abbreviates: second compound 3.16 µM, first compound 0.1 µM.

A value given as a limit tells only on which side of the number the result lay.
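Also: spheroids exposed to compounds for seven days before readout.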

For `CC(C)n1nc(-c2ccc3oc(N)nc3c2)c2c(N)ncnc21` + C=CC(=O)N1CCN(c2nc(OCC3CCCN3C)nc3c2CCN(c2cccc4cccc(C)c24)C3)CC1CC#N, the IC50 (commonly the point on the concentration scale where inhibition reaches its midpoint) runs as follows: (curve of first compound, second compound 0.0316 µM) 1.04 nM; under setting [1], 0.76 nM; under setting [2], 0.891 nM; under setting [3], 0.673 nM; under setting [4], less than 0.316 nM. Also, the viability, T/C (as a rule, the result in the treated group divided by that in the control group, in per cent) by setting is: (second compound 0.0316 µM, first compound 0.000316 µM) 91.5%; (second compound 0.0316 µM, first compound 0.001 µM) 51.2%; (second compound 0.0316 µM, first compound 0.00316 µM) 14.9%; (second compound 0.0316 µM, first compound 0.01 µM) 9.06%; (second compound 0.0316 µM, first compound 0.0316 µM) 8.26%; (second compound 0.0316 µM, first compound 0.1 µM) 8.57%. The viability, T/C under setting [5] was 95.8%; the viability, T/C under setting [6] is 35.6%; the viability, T/C under setting [7] is 13.9%; the viability, T/C under setting [8] was 8.16%; the viability, T/C under setting [9] was 7.73%; the viability, T/C under setting [10] was 7.41%. The viability, T/C was 92.3% under setting [11]; 45.2% under setting [12]; 18% under setting [13]; 9.14% under setting [14]; 7.31% under setting [15]; 7.9% under setting [16]. For the same compound, the viability, T/C was 71.8% under setting [17]; 38.3% under setting [18]; 17.3% under setting [19]; 7.45% under setting [20]; 6.31% under setting [21]; 6.74% under setting [22]. Moreover, the viability, T/C under setting [23] is 1%; the viability, T/C under setting [24] was 0.25%; the viability, T/C under setting [25] was 1.1%; the viability, T/C under setting [26] was 0.13%; the viability, T/C under setting [27] was 0.22%; the viability, T/C under setting [28] was 0.17%.

As for `C=CC(=O)N1CCN(c2nc(OCC3CCCN3C)nc3c2CCN(c2cccc4cccc(C)c24)C3)CC1CC#N` (configuration not stated), the half-maximal inhibitory concentration (IC50) is 1.47 µM [middle of 5 runs] (compound alone, run of 07/19/2021) and 1.33 µM [middle of 5 runs] (compound alone, run of 07/26/2021).

As to `CN(C)C/C=C/C(=O)Nc1cc2c(Nc3ccc(F)c(Cl)c3)ncnc2cc1O[C@H]1CCOC1` + COc1cc2nc(C)nc(NC(C)c3cc(N)cc(C(F)(F)F)c3)c2cc1OC1CCOC1, the IC50 is, setting by setting: under setting [1], more than 100 nM; under setting [2], more than 100 nM; under setting [3], more than 100 nM; under setting [4], more than 100 nM; (curve of first compound, second compound 10 µM) more than 100 nM. Also, the viability, T/C is, setting by setting: under setting [5], 97.6%; under setting [6], 104%; under setting [7], 88.8%; under setting [8], 95.3%; under setting [9], 93.8%; under setting [10], 92.8%. In addition, the viability, T/C is 87.2% under setting [11]; 102% under setting [12]; 92.2% under setting [13]; 102% under setting [14]; 87.5% under setting [15]; 88.2% under setting [16]. Moreover, the viability, T/C was 91.5% under setting [17]; 97.4% under setting [18]; 101% under setting [19]; 92.8% under setting [20]; 90.8% under setting [21]; 91.9% under setting [22]. Besides, the viability, T/C was 74.7% under setting [23]; 78.2% under setting [24]; 70.3% under setting [25]; 77.7% under setting [26]; 67.6% under setting [27]; 75.1% under setting [28]. Also, the viability, T/C (second compound 10 µM, first compound 0.000316 µM) was 74%; the viability, T/C (second compound 10 µM, first compound 0.001 µM) was 69.7%; the viability, T/C (second compound 10 µM, first compound 0.00316 µM) is 73.2%; the viability, T/C (second compound 10 µM, first compound 0.01 µM) is 78.8%; the viability, T/C (second compound 10 µM, first compound 0.0316 µM) is 73.4%; the viability, T/C (second compound 10 µM, first compound 0.1 µM) is 62.8%.
